# Measurements published in patent US20050009772A1, “Methods and compositions for the treatment of glaucoma and other retinal diseases” (The Regents of the University of California, priority 2003, published 2005).
# Entries after “also recorded” stand apart in the source; their conditions may differ.
# Tests used:
# HSP72 [1] = assay: Western blot for HSP72 in enriched RGC fraction after systemic administration of GGA (Experiment 1); assay type: in vivo, rat; settings: GGA 200 mg/kg daily i.p.
# Description: Experiment 1 was performed to evaluate the expression of HSP72 and HSC70 in RGCs after systemic administration of GGA with Western blot analysis and immunohistochemistry. For Western blotting, twelve rats were equally divided into 6 groups. Three groups of animals were given intraperitoneal injections of GGA 200 mg/kg daily and were euthanized after 1-, 3- or 7 days of administration of GGA. Three control groups were intraperitoneally administered 1) saline-vehicle daily for 7 days; 2) GGA with 4 mg/kg of quercetin (Sigma, St. Louis, Mo.) daily for 7 days; and 3) untreated animals. Enriched RGC fraction was harvested from 2 retinas of each group and used for Western blot analysis. The same experiment for isolation of RGCs and Western blotting was repeated with the other 2 retinas-from each group.
# A solution of 80 mg/mL GGA was prepared in saline (Balanced salt solution; Alcon Laboratories, Inc., Fort Worth, Tex.) and emulsified for one hour in an ultrasonic generator (Branson Ultrasonic Corp., Danbury, Conn.) immediately before administration. Intraperitoneal injections of GGA were given at a dose of 200 mg/kg. Saline-vehicle was prepared and administered in the same fashion in vehicle-treated control groups.
# A previously described method was modified to partially purify RGCs from other retinal cells in rat retinas.38 Briefly, two dissected rat retinas from each subgroup were washed in 2.5 ml of calcium- and magnesium-free phosphate buffered saline (PBS) at pH 7.4, and incubated in 1.25 ml of PBS containing 0.5 mg/ml trypsin and 0.01% deoxyribonuclease for 15 minutes at 37° C. This was followed by washing the retinas twice in 2.5 ml of minimal essential medium (MEM) containing 10% (vol/vol) fetal bovine serum. The retinas were subsequently washed in 2.5 ml of MEM twice and dissociated in 3 ml of MEM. The cell suspension was then mixed with 1.5 ml of 30% metrizamide (ICN Biomedicals, Inc., Aurora, Ohio) in MEM to a final concentration of 10 metrizamide. This mixture was then overlaid with 5% metrizamide in MEM, and the gradient was centrifuged at 4500 rpm (HB-4; Sorvall Instruments, Newtown, Conn.) for 25 minutes at 4° C. The cells in the 5% to 10% interface were collected. and washed in 25 ml of cold MEM. The washed cells were pelleted by centrifugation at 250×g for 10 minutes (Juan 3000C centrifuge, Winchester, Va.). The cells were then resuspended in 400 μl of MEM buffer, and the protein concentration in the cell suspension was measured with a bicinchoninic acid (BCA) protein assay kit (Pierce, Rockford, Ill.).
# Western blot analysis was performed according to the procedure described by Towbin et al.39 Aliquots of 20 μg of protein from enriched RGCs were separated on a 12% SDS-polyacrylamide minigel (Bio-Rad, Hercules, Calif.) and transferred to the membrane (Immunobilon-P; Millipore Corporation, Bedford, Mass.). The membrane was blocked by incubation in 0.1% Tween-20 in 100 mM Tris-buffered saline containing 10% nonfat dried milk for 1 hour. The membranes were incubated with mouse monoclonal antibody against HSP72 (1:1000; StressGen Biotechnologies Corp., Victoria, British Columbia, Canada) or with rat monoclonal antibody against HSC70 (1:1000; StressGen) overnight and then biotinylated rabbit anti-mouse secondary antibody (1:500; Amersham Pharmacia Biotech, Inc., Piscataway, N.J.) or biotinylated goat anti-rat secondary antibody (1:500; Amersham Pharmacia) for 1 hour. This was followed by incubation with streptavidin-conjugated horseradish peroxidase (1:2000; Amersham Pharmacia) for 40 minutes. The immunoreactive bands were detected by chemiluminescence with an enhanced chemiluminescence Western blot reagent (Amersham Pharmacia).
# [2] = test system: retinal ganglion cells (RGCs); assay: Density of DTMR-labeled RGCs in rat glaucoma model (Experiment 2); assay type: in vivo
# Description: GGA was then given twice a week at the same dose until euthanasia. Sustained elevation of intraocular pressure (IOP) was maintained by performing trabecular laser photocoagulation three weeks after the first photocoagulation. […] IOP and body weight were measured once a week. […] Rats were anesthetized with intramuscular injections of 0.8 ml/kg of the anesthetic cocktail described above. A previously published procedure was modified to produce chronic moderately elevated IOP unilaterally, while the untreated contralateral eye served as the comparative control.40 Animals were injected intracamerally with 10 μl of 35% India ink (Becton Dickinson, Cockeysville, Md.) in 0.01 M PBS after removing a similar volume of aqueous. At the end of the procedure, Tobrex ophthalmic ointment (tobramycin 0.3%; Alcon, Fort Worth, Tex.) was applied topically. Five days after intracameral injection of India ink, a dark band at the limbus was noted due to the aggregation of carbon particles in the trabecular meshwork.38 After anesthesia, approximately 200 laser burns were delivered ab externo to the pigmented trabecular band at laser settings of 200 μm diameter, 200 mW power and 0.2 seconds duration. Three weeks after the first laser treatment, another trabecular laser photocoagulation was performed without further injection of ink. […] A cross section of the optic nerve was made with the needle knife through the opening of the optic nerve sheath, with care not to damage the adjacent blood supply. DTMR crystals were applied to the proximal cut surface of the optic nerve to label RGCs by fast retrograde axonal transport. After euthanasia and enucleation, the retinas were dissected and flattened with four radial cuts (superotemporal, inferotemporal, superonasal, and inferonasal). They were placed with vitreal side up on glass slides, dried in the dark at room temperature overnight and mounted. The retinas were examined with a fluorescence microscope (Axioplan; Carl Zeiss, Oberkochen, Germany) equipped with a filter that permits visualization of rhodamine fluorescence (excitation filter BP 546, barrier filter LP590; Carl Zeiss). The counting of RGCs was conducted by 2 examiners in a masked fashion. […] Each rectangular area measured 0.475 mm×0.362 mm and the total counted area corresponded to approximately 3.1% of each total retinal area. Data are expressed as number of RGCs per mm2.
# optic nerve axons = assay: Grading of optic nerve injury in rat glaucoma model (Experiment 2); assay type: in vivo
# Description: GGA was then given twice a week at the same dose until euthanasia. Sustained elevation of intraocular pressure (IOP) was maintained by performing trabecular laser photocoagulation three weeks after the first photocoagulation. […] IOP and body weight were measured once a week. After 5 weeks of IOP elevation, the number of retrogradely labeled RGCs with dextran tetramethylrhodamine (DTMR) was counted (n=53). The grading of optic nerve injury and the counting of cresyl violet-stained cells in the retinal ganglion cell layer (RGCL) was also performed (n=54).
# Rats were anesthetized with intramuscular injections of 0.8 ml/kg of the anesthetic cocktail described above. A previously published procedure was modified to produce chronic moderately elevated IOP unilaterally, while the untreated contralateral eye served as the comparative control.40 Animals were injected intracamerally with 10 μl of 35% India ink (Becton Dickinson, Cockeysville, Md.) in 0.01 M PBS after removing a similar volume of aqueous. At the end of the procedure, Tobrex ophthalmic ointment (tobramycin 0.3%; Alcon, Fort Worth, Tex.) was applied topically. Five days after intracameral injection of India ink, a dark band at the limbus was noted due to the aggregation of carbon particles in the trabecular meshwork.38 After anesthesia, approximately 200 laser burns were delivered ab externo to the pigmented trabecular band at laser settings of 200 μm diameter, 200 mW power and 0.2 seconds duration. Three weeks after the first laser treatment, another trabecular laser photocoagulation was performed without further injection of ink.
# To examine the effect on RGC axons, optic nerve injury was evaluated with an established method.41 After 5 weeks of IOP elevation, deeply anesthetized animals were perfused with a solution of 4% paraformaldehyde and 1% glutaraldehyde. Optic nerve segments […] behind the globe were dissected, washed, postfixed with 5% glutaraldehyde, dehydrated, and embedded. One μm-thick sections were cut and stained with 1% toluidine blue. Optic nerve cross sections were examined under light microscopy and assessed by three independent masked observers. A graded scale of optic nerve injury ranging from 1 (normal) to 5 (total degeneration) was used. Data obtained from three observers were averaged and presented as mean ±SEM.
# HSP72 [3] = assay: Quantitative immunohistochemical analysis of HSP72 in the RGCL after 1 week of IOP elevation (Experiment 3); assay type: in vivo, rat; settings: quercetin = co-administered with GGA
# Description: (§1) TdT-mediated biotin-dUTP nick end labeling (TUNEL) and immunohistochemical analysis for HSP72 and HSC70 were performed.
# Animals were deeply anesthetized with intramuscular injections of 0.8 ml/kg of a cocktail of 5 ml ketamine (100 mg/ml), 2.5 ml xylazine (20 mg/ml), 1.0 ml acepromazine (10 mg/ml), and 1.5 ml normal saline. Then they were transcardially perfused with 4% paraformaldehyde in 0.1 M phosphate buffer. The enucleated eyeballs were immersed in fixative for 1 hour, bisected and post-fixed overnight. The eyes were embedded in paraffin and sectioned at a four-μm thickness along the vertical meridian through the optic nerve head. After deparaffinization and hydration, a species-specific Vectastain ABC kit (Vector Laboratories, Inc., Burlingame, Calif.) was chosen to match the species of primary antibody and the manufacturer's procedures were followed. The tissue sections were incubated with blocking serum solution in PBS for 1 hour. This was followed by incubation with primary antibody at 4° C overnight. The antibodies were mouse monoclonal antibody against HSP72 (1:500; StressGen Biotechnologies Corp., Victoria, British Columbia, Canada), goat polyclonal antibody against HSP72 (1:1000; Santa Cruz Biotechnology, Inc., Santa Cruz, Calif.) or rat monoclonal antibody against HSC70 (1:200; StressGen). Antigen-antibody complexes were detected by an avidin-biotin-peroxidase technique (Vectastain ABC Kit; Vector Laboratories). Diaminobenzidine (DAB) was used to produce a brown color in the target tissue and the slides were permanently mounted. As a negative control, alternate retinal section was incubated with blocking solution by replacing the primary antibody or with anti-rabbit secondary antibody by replacing the original secondary antibody.
# Immunohistochemical staining was analyzed quantitatively with a computer-assisted image processing unit (Image-Pro Plus software, Media Cybernetics, Silver Spring, Md.) and the “count-measure” function. Images of immuno-stained sections were captured with a digital camera (Cool snap, RS Photometric, Tucson, Ariz.) attached to the microscope (Axio plan, Carl Zeiss, Oberkochen, Germany) at 630× magnification under oil immersion. The system was calibrated according to the supplier's manual before the analysis. For each digital image, all individual cells in the RGCL were marked by a masked examiner and the optical density of each cell was measured. The relative intensities of cells in the RGCL were measured and averaged (±SEM) to yield a single value representing one retina.
# HSC70 = assay: Quantitative immunohistochemical analysis of HSC70 in the RGCL after 1 week of IOP elevation (Experiment 3); assay type: in vivo, rat; settings: among all the groups, 1 week after laser
# Description: as §1
# Animals were deeply anesthetized with intramuscular injections of 0.8 ml/kg of a cocktail of 5 ml ketamine (100 mg/ml), 2.5 ml xylazine (20 mg/ml), 1.0 ml acepromazine (10 mg/ml), and 1.5 ml normal saline. Then they were transcardially perfused with 4% paraformaldehyde in 0.1 M phosphate buffer. The enucleated eyeballs were immersed in fixative for 1 hour, bisected and post-fixed overnight. The eyes were embedded in paraffin and sectioned at a four-μm thickness along the vertical meridian through the optic nerve head. […] Antigen-antibody complexes were detected by an avidin-biotin-peroxidase technique (Vectastain ABC Kit; Vector Laboratories). […]
# Immunohistochemical staining was analyzed quantitatively with a computer-assisted image processing unit (Image-Pro Plus software, Media Cybernetics, Silver Spring, Md.) and the “count-measure” function. […] For each digital image, all individual cells in the RGCL were marked by a masked examiner and the optical density of each cell was measured. The relative intensities of cells in the RGCL were measured and averaged (±SEM) to yield a single value representing one retina.
# [4] = contralateral controls (normal IOP)
# [5] = retinas with IOP elevation, 5 weeks
substance,measurement,setting,value
Geranylgeranylacetone [GGA],immunoreactivity of HSP72 in RGCs (immunoblot),HSP72 [1]; 1 day,mild increase in immunoreactivity
same,immunoreactivity of HSP72 in RGCs (immunoblot),HSP72 [1]; 3 days,increased HSP72 expression; also recorded: strong increase in immunoreactivity
same,immunoreactivity of HSP72 in RGCs (immunoblot),HSP72 [1]; 7 days,increased HSP72 expression; also recorded: strong increase in immunoreactivity
same,density of DTMR-labeled RGCs,[2]; [4],1077±48 cells/mm2
same,density of DTMR-labeled RGCs vs vehicle-treated controls (in words),[2]; [4],no statistical significance
same,density of DTMR-labeled RGCs,[2]; [5],1044±36 cells/mm2
same,more DTMR-labeled cells preserved compared with vehicle,[2]; [5],57%
same,effect on density of DTMR-labeled RGCs (in words),"[2]; retinas with IOP elevation, 5 weeks, quercetin = co-administered with GGA",higher density; also recorded: partial
same,effect on optic nerve injury / axonal damage (in words),optic nerve axons; 5 weeks of IOP elevation,inhibited; also recorded: significantly ameliorated
same,optic nerve injury grade,"optic nerve axons; 5 weeks of sustained IOP elevation, scale 1 (normal) to 5 (total degeneration)",1.33±0.05
same,optic nerve injury (in words),optic nerve axons; contralateral control eyes,no statistically significant optic nerve injury
same,optic nerve injury grade,"optic nerve axons; contralateral control eyes, scale 1 to 5",1.11±0.02
same,HSP72 expression (immunoreactive intensity) in the RGCL,HSP72 [3]; control (normal IOP) retinas vs vehicle-alone controls,increased expression of HSP72; also recorded: Increased immunoreactivity of HSP72
same,HSP72 expression (immunoreactive intensity) in the RGCL,"HSP72 [3]; retinas with IOP elevation, 1 week",apparently further increased
same,expression of HSC70 in RGCL (immunoreactive intensity),HSC70,no statistically significant difference; also recorded: No change in HSC70 immunoreactivity
